Our source for the IC50 values is PubChem BioAssay AID1645866 (Buhrlage Lab, Dana-Farber Cancer Institute and Novartis …, 2021).

pIC50: −log10 of the molar value. Activity calls are given as the source filed them.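 How the source made its calls: active means in confirmatory dose-response testing, peak deubiquitinase inhibition of 30% or more; inactive means the rest.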

For the assay, the target named is Ubiquitin carboxyl-terminal hydrolase 28 (Homo sapiens) (UniProt Q96RU2). Nature of the assay: Ubiquitin-specific peptidase 28 DUB inhibitors, biochemical concentration-dependence assay, validation of primary screening hits (AID 1645866). The conditions noted are these: purified USP28, ubiquitin-rhodamine fluorescence, 30 min.
Sequence of Ubiquitin carboxyl-terminal hydrolase 28 (Homo sapiens) (Q96RU2 whole entry, looked up): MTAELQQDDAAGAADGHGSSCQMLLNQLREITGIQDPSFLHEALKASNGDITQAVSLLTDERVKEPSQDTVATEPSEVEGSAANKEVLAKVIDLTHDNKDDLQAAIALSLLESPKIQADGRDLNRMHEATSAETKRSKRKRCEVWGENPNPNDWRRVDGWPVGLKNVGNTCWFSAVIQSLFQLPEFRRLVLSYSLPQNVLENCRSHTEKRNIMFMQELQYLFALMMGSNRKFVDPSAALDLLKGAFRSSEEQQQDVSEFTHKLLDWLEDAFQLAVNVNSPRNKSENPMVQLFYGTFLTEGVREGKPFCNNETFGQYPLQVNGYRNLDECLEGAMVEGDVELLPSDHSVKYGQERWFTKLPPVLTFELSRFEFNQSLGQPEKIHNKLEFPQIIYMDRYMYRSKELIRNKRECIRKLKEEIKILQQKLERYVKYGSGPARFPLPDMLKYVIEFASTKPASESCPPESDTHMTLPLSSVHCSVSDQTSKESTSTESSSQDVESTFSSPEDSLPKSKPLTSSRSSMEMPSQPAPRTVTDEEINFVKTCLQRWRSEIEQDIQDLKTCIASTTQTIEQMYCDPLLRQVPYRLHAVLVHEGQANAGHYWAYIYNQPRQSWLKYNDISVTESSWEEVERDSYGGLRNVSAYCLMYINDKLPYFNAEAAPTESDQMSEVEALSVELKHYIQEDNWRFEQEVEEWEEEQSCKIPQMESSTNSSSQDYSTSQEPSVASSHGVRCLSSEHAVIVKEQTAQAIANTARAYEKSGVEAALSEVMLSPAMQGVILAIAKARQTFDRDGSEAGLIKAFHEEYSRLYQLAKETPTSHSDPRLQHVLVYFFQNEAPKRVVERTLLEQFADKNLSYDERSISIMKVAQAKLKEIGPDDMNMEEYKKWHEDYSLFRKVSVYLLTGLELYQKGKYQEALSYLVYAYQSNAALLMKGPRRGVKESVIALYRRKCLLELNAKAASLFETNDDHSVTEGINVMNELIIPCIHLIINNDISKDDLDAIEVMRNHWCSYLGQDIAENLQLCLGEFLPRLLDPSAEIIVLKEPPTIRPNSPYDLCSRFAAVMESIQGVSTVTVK
As a reminder, the IC50 is the midpoint of a concentration-inhibition curve. As for `Cc1cc(Cl)ccc1NC(=O)c1cc(-c2cccnc2)n[nH]1`, the IC50 was > 50 µM (inactive).
What is called pIC50 is the negative decadic logarithm of the IC50, by convention in mol/L. Turning to `CNS(=O)(=O)c1ccc(CNC(=O)c2cc(-c3ccc(C)cc3)no2)cc1`, the pIC50 is 4.68.
Turning to `CCCCNC(=O)c1cc2cccnc2n(Cc2ccccc2)c1=O`, the IC50 was > 50 µM (inactive).
For `O=C1CC(C(=O)Nc2ccccc2Cl)n2nc(-c3ccccc3)cc2N1` (centres undefined), the pIC50 was 4.71.
The same measure, in the same setting: the figure for `Fc1ccc(Cc2nc(-c3ccc4nncn4c3)no2)cc1` is 4.82; for `Cc1ccc(CNC(=O)CCCn2c(=O)c3sccc3n(CC(=O)Nc3cc(Cl)ccc3C)c2=O)cc1` it is 5.54.
On to `CS(=O)(=O)c1ccc(NC(=O)C2CN(c3nc4c(F)cccc4s3)C2)cc1`, for which the pIC50 was 4.67.
Regarding `O=C(CN1C(=O)COc2ccc(Cl)cc21)Nc1cccc2ncccc12`, the IC50 is > 50 µM (inactive).
In the case of `O=C(COc1cccc2c1CCN(Cc1cccnc1)C2=O)Nc1ccc2c(c1)OCCO2`, the pIC50 was 5.87.
Consider `COCCCn1c(C(=O)NCCc2ccccc2)cc2c(=O)n3cccc(C)c3nc21`, for which the pIC50 is 4.38.
`CCOc1ccc2c(c1)c(=O)c(C(=O)c1ccccc1)cn2CC(=O)Nc1ccc2c(c1)OCCO2`: the pIC50 is 4.62.
For the compound `CCn1cc(NC(=O)CN2CCC3(CC=CCOC3)CC2)c(C)n1`, the IC50 is > 50 µM (inactive).
Regarding `C/C1=C/C=C/[C@H](C)[C@H](O)[C@@H](C)[C@@H](O)[C@@H](C)[C@H](O)[C@H](C)[C@@H](O)[C@@H](C)/C=C(/C)C(=O)c2c(O)c(C)cc3c2C(=O)C=C(NC1=O)C3=O`, the IC50 is > 50 µM (inactive).
For `CCn1c(SCC(=O)N2c3ccccc3CC2C)nnc1-c1ccc2c(c1)OCCO2` (centres undefined), the pIC50 is 4.47.
Same read-out and setting: the figure for `Cc1cccc(CNC(=O)C2CCCN(S(=O)(=O)Cc3ccc(F)cc3)C2)c1` (centres undefined) is 4.58.
On to `COC1/C=C/OC2(C)Oc3c(C)c(O)c4c(c3C2=O)C(=O)C=C(NC(=O)/C(C)=C\C=C\C(C)C(O)C(C)C(O)C(C)C(OC(C)=O)C1C)C4=O` (centres undefined), for which the pIC50 is 4.42.
For the compound `Cc1sc(-c2cccnc2)nc1OC(=O)c1ccc(Cl)c(Cl)c1`, the IC50 was > 50 µM (inactive).
For `COc1ccc(CCNC(=O)c2cc(C3CC3)nc3c2cnn3C(C)C)cc1`, the pIC50 is 5.46.
On the same count and under the same terms, the figure for `Cc1ccc(-c2nc(NC(=O)Nc3ccc(Cl)cc3)sc2C)cc1` is 4.48; for `COc1ccc(COc2ccc3c(C)c(CC(=O)N4CC[C@@]5(O)CCCC[C@H]5C4)c(=O)oc3c2)cc1` it is 5.64; for `O=C(Nc1ccc(Cl)cc1F)c1cc(-c2ccccn2)n[nH]1` it is 5.77.
On to `COc1ccc(C)cc1NC(=O)Cc1csc(NC(=O)c2ccc(=O)[nH]c2)n1`, for which the pIC50 is 4.33.
With `CCc1nc2c(NC(=O)Nc3cccc(C(=O)OC)c3)cccn2n1`, the pIC50 was 5.54.
Consider `COc1ccc2nc(Nc3ncc4c(n3)CCCC4=O)nc(C)c2c1`, for which the IC50 was > 5 µM (inactive).
With `CCN1C(=O)COc2ccc(NC(=O)c3ccc(OCc4nonc4C)cc3)cc21`, the pIC50 is 5.31.
As to `CCn1c(COc2cccc(C(F)(F)F)c2)nnc1SCc1ccc(Cl)cc1`, the pIC50 was 5.01.
`Cc1ccc(NC(=O)c2sc(=S)n(CCc3ccccc3)c2N)cc1`: the pIC50 was 5.01.
Consider `Cc1cccc(NC(=O)Cn2c(N3CCOCC3)nc3cc(C)n(C)c3c2=O)c1`, for which the negative logarithm of the IC50 (pIC50) is 4.79.
Still for that read-out and setting: the figure for `CCOc1ccc(-n2c(SCC(=O)N3CC(=O)Nc4ccccc43)nnc2-c2ccc(OC)cc2)cc1` is 4.60; for `Cc1ccc(Nc2nc(O)c(CC(=O)Nc3ccccc3C)s2)cc1C` it is 4.78.
As to `CC(CCc1ccccc1)NC(=O)C(=O)c1cn(CC(=O)N2CCOCC2)c2ccccc12` (centres undefined), the IC50 was > 50 µM (inactive).
In the case of `Cc1cccc(N2C(=O)/C(=C\c3ccc4c(c3)OCCO4)c3ccccc3C2=O)c1`, the pIC50 was 4.72.
For `O=C(Cc1cccnc1)Nc1ccc(N2CCN(C3CCCCC3)C2=O)nc1`, the IC50 was > 50 µM (inactive).
On to `COc1ccc(NC(=O)c2sc(N3CCOCC3)nc2-c2ccccc2)c(OC)c1`, for which the pIC50 is 4.77.
Still for that read-out and setting: next, `Cc1cc(-c2ccnc3c(C#N)cnn23)c(C)s1`: 4.55; `O=C(Nc1ccc2nccnc2c1)c1cccc(C(F)(F)F)c1`: 4.47.
For `Cc1ccc2c(c1)N=C(c1ccc([N+](=O)[O-])cc1)CO2`, the IC50 is > 50 µM (inactive).
In the case of `O=C(NC1(O)C(=O)c2ccccc2C1=O)c1ccc(-c2csnn2)cc1`, the pIC50 was 4.44.
On to `CC(C(=O)NCc1ccc(F)cc1)n1cccc1C(=O)c1ccccc1` (centres undefined), for which the IC50 is > 50 µM (inactive).
For the compound `O=C1Oc2nc3ccccc3cc2CN1Cc1ccco1`, the pIC50 is 4.74.
In the case of `CC(=O)c1ccc(Cc2ncc(C(F)(F)F)cc2Cl)s1`, the pIC50 is 5.17.
On to `Cc1cc(C)cc(N(CCC(=O)Nc2ccc(N3CCOCC3)cc2)S(=O)(=O)c2ccc(Cl)cc2)c1`, for which the negative-log IC50 (pIC50) was 4.89.
As to `Cc1ccc(S(=O)(=O)c2cnc(SCC(=O)Nc3ccc(Cl)cc3)nc2N)cc1C`, the pIC50 was 4.40.
Consider `Cc1ccccc1NC(=O)c1cc(S(=O)(=O)N2CCCCCC2)ccc1Cl`, for which the pIC50 was 4.59.
Take `COc1cccc(NC(=O)C2CCC(CNS(=O)(=O)c3ccc4c(c3)C(C)(C)C(=O)N4C)CC2)c1` (centres undefined): the pIC50 is 5.58.
Still for that read-out and setting: the figure for `O=C(Nc1ccc(Oc2cccc3cccnc23)cc1)c1cccs1` is 6.27.
With `O=c1c2ccccc2c(-c2nc(-c3ccncc3)no2)cn1-c1ccccc1`, the pIC50 is 5.59.
With `Cc1sc(NC(=O)CN2CCc3ccccc3C2)nc1-c1ccc2c(c1)CCN2C(=O)C1CCCCC1`, the IC50 is > 50 µM (inactive).
Turning to `O=C(Nc1ccccc1Cl)N(Cc1cc2cc3c(cc2[nH]c1=O)OCCO3)C1CCCCC1`, the negative logarithm of the IC50 (pIC50) is 4.31.
With `Cc1cccc(NC(=O)CN2C(=O)CC(c3ccccc3)S(=O)(=O)c3ccccc32)c1C` (centres undefined), the negative logarithm of the IC50 (pIC50) is 4.67.
For the compound `CC(C)(C)C(=O)Nc1ccc(C(=O)Nc2cccc(-c3nnc(-c4ccccc4)o3)c2)cc1`, the pIC50 was 5.32.
In the case of `Cc1sc2nc(CN3CCCC3)nc(NCCc3ccc(Cl)cc3)c2c1C`, the IC50 is > 50 µM (inactive).
On to `O=C(Nc1cccc(S(=O)(=O)N2CCCC2)c1)c1ccc2c(=O)n3c(nc2c1)CCCCC3`, for which the pIC50 is 4.67.
Regarding `COc1ncccc1CN1CCn2c(Cn3cccn3)cnc2C1C` (centres undefined), the IC50 is > 50 µM (inactive).
In the case of `CCCc1cc(=O)n2[nH]c(COc3ccccc3)c(-c3ccccc3)c2n1`, the pIC50 was 4.54.
With `O=C(Nc1cccc(Br)c1)c1cc(-c2cccnc2)n[nH]1`, the pIC50 is 5.67.
`COc1ccc(NC2c3ccccc3C(=O)N2c2ccccn2)cc1` (centres undefined): the IC50 was > 50 µM (inactive).
Consider `CC1CCN(c2cc(-n3cnc(C(=O)N4CCCC(C)C4)c3)ncn2)CC1` (centres undefined), for which the pIC50 is 4.99.
Same read-out and setting: next, `COc1ccc(CNC(=O)CCc2nnc3n(Cc4ccccc4Cl)c(=O)c4ccccc4n23)cc1`: 5.66.
Same read-out and setting: the figure for `N#Cc1ccccc1Cn1c(=O)n(CCCCC(=O)NCCc2ccccc2)c(=O)c2ccccc21` is 4.71; for `Cc1cccc(C(=O)Nc2cccc(SC(C(=O)Nc3ccc(O)c(C(=O)O)c3)c3ccccc3)c2)c1` (centres undefined) it is 5.43; for `CCCc1nc2sc3c(NCCCN4CCOCC4)ncnc3c2c2c1CCC2` it is 6.13.
Same read-out and setting: next, `CC(C)c1ccc(NC(=O)COC(=O)c2ccc3[nH]c4c(c3c2)CCCC4)cc1`: 4.50; `CSc1nc(SCC(N)=O)c2c3c(sc2n1)COC(C)(C)C3`: 4.56.
